According to BindingDB's records for doi:10.1039/d0md00137f (University of Regensburg, 2020):

Target: Muscarinic acetylcholine receptor M2 (Homo sapiens) (UniProt P08172)
Experiment: Displacement of [3H]NMS from human recombinant muscarinic receptor M2 expressed in […] cell membranes measured after 3 hrs by radioligand competition binding assay

Ki [nM]	SMILES
0.589	NCCNC(=O)CCc1cn(CCCCC2CCN(CC(=O)N3c4ccccc4NC(=O)c4ccccc43)CC2)cn1
3	Cc1cc(/C=C/C=C/c2ccc(N(C)C)cc2)cc(C)[n+]1CCN1CCN(CCCCC2CCN(CC(=O)N3c4ccccc4NC(=O)c4ccccc43)CC2)CC1
